According to patent US20090163474A1, “FXR Agonists for the Treatment of Nonalcoholic Fatty Liver and Cholesterol Gallstone Diseases” (Wyeth, priority 2007, published 2009):

Legend:
mice fed a Paigen diet [1] = assay: Gallstone formation in Paigen diet fed mice; assay type: in vivo; conditions: 30 mg/kg orally once a day for 4 weeks
Description: To study gallstone formation, gallbladders were harvested from mice fed a Paigen diet and administered vehicle or 30 mg/kg Compound A orally once a day for 4 weeks.

[2] = system: C57BL/6 mice with preformed gallstones; assay: Gallstone dissolution in mice with preformed gallstones; assay type: in vivo; conditions: Paigen diet 4 weeks, then 30 mg/kg orally once a day on chow diet for 4 weeks
Description: To study gallstone dissolution, gallbladders were harvested from mice treated as follows. C57BL/6 mice were fed a Paigen diet for 4 weeks to initiate gallstone formation. Subsequently these mice were administered vehicle or 30 mg/kg Compound A orally once a day and fed a standard chow diet for 4 weeks to study the effect of Compound A on preformed gallstones.

mice fed a Paigen diet [3] = assay: Gallbladder bile lipid composition, Paigen diet with treatment; assay type: in vivo
Description: (§1) Disrupted cholesterol, phospholipid, and bile salt homeostasis contributes to the formation of gallstones. Gallbladder bile lipid composition was quantitated from mice treated as follows. A group of mice (CHOW) was fed a standard chow diet. Another group of mice was fed a Paigen diet and administered vehicle (Paigen/Vehicle) or 30 mg/kg Compound A (Paigen/Compound A) orally once a day for 4 weeks. To preform gallstones, mice were fed initially a Paigen diet for 4 weeks and subsequently fed a standard chow diet and administered vehicle (Preformed/Vehicle) or 30 mg/kg Compound A (Preformed/Compound A) orally once a day for 4 weeks. […] Data are presented as the mean±SE.

[4] = system: mice with preformed gallstones; assay: Gallbladder bile lipid composition, preformed gallstones; assay type: in vivo
Description: as §1

[5] = system: wildtype (WT) mice fed a MCD diet; assay: MCD diet, wildtype mice (WT vs FXRKO study); assay type: in vivo; conditions: 30 mg/kg orally once a day for 4 weeks
Description: (§2) Mice were fed a standard chow diet or a MCD diet and treated with either vehicle or 30 mg/kg Compound A orally once a day for 4 weeks.

[6] = system: FXR deficient (FXRKO) mice fed a MCD diet; assay: MCD diet, FXR deficient mice (WT vs FXRKO study); assay type: in vivo; conditions: 30 mg/kg orally once a day for 4 weeks
Description: as §2

Hep3B cells [7] = assay: IL-6 induced CRP gene expression in Hep3B cells; assay type: cell-based, Human; conditions: Compound A 1 μM; IL-6 10 ng/ml or 50 ng/ml; P<0.001 vs DMSO
Description: Human hepatoma cells, Hep3B secrete the acute phase protein, C-reactive protein (CRP) upon IL-6 treatment. Cells were cotreated with Compound A to determine if Compound A could decrease IL-6 induced CRP secretion.
FIGS. 26A and 26B show the CRP gene expression level in Hep3B cells stimulated with IL-6 (10 ng/ml or 50 ng/ml), and treated with vehicle (DMSO) or Compound A (1 μM). […] (*P<0.001, Hep3B/DMSO vs. Hep3B/Compound A).

Hep3B cells [8] = assay: FXR siRNA studies in Hep3B cells; assay type: cell-based, Human; conditions: Compound A 1 μM, 50 ng/ml IL-6
Description: FXR siRNA studies were performed in Hep3B cells. […] The cells were transfected with FXR siRNA or control siRNA, stimulated with 50 ng/ml IL-6, and treated with control (DMSO) or Compound A (1 μM). CRP concentrations in the conditional media were measured by ELISA. (*P<0.01, Control siRNA/DMSO vs. Control siRNA/Compound A).
The Hep3B cells were transfected with FXR siRNA or control siRNA, stimulated with 50 ng/ml IL-6, and treated with control (DMSO) or Compound A (1 μM). […] (*P<0.001, Control siRNA vs. FXR siRNA).

[9] = system: Wildtype mice challenged with LPS; assay: LPS-induced liver acute phase response, wildtype mice; assay type: in vivo; conditions: 30 mg/kg for 4 days; 2.5 micrograms LPS, 4 hours; P<0.01
Description: (§3) Wildtype and FXR deficient mice were treated with Compound A (30 mg/kg) or vehicle for 4 days. On day 4, mice were challenged with 2.5 micrograms of lipopolysaccharide (LPS) to induce an acute phase response. After 4 hours, the mice were euthanized and their livers were harvested for analysis of expression of various factors. […] Compound A attenuated the LPS-induced murine liver acute phase response. […] (*P<0.01, WT/LPS/V vs. WT/LPS/Compound A).

[10] = system: FXRKO mice challenged with LPS; assay: LPS-induced liver acute phase response, FXR deficient mice; assay type: in vivo; conditions: 30 mg/kg for 4 days; LPS treated FXRKO mice
Description: as §3

[11] = system: Wildtype mice challenged with CCl4; assay: CCl4 induced acute liver injury and fibrosis in mice; assay type: in vivo; conditions: 30 mg/kg for 4 days, 30 μl/kg CCl4 on day 3, 24 hours
Description: Wildtype mice were treated with 30 mg/kg Compound A or vehicle for 4 days. On day 3, mice were challenged with 30 μl/kg of carbon tetrachloride (CCl4) to induce acute liver injury. After 24 hours, mice were euthanized and their livers were harvested for analysis.

[12] = Paigen/Compound A vs Paigen/Vehicle
[13] = Paigen/Compound A, 30 mg/kg orally once a day for 4 weeks, mean±SE
[14] = Preformed/Compound A vs Preformed/Vehicle
[15] = Preformed/Compound A, Paigen diet 4 weeks, then chow and 30 mg/kg orally once a day for 4 weeks, mean±SE

In the case of `CC(C)OC(=O)C1=CN(C(=O)c2ccc(F)c(F)c2)CC(C)(C)c2c1[nH]c1ccccc21` [Compound A, isopropyl 3-(3,4-difluorobenzoyl)-1,1-dimethyl-1,2,3,6-tetrahydroazepino[4,5-b]indole-5-carboxylate], the “cholesterol gallstones in gallbladders (gross morphology)” value (mice fed a Paigen diet [1]) is reported as “clearly visible in the gallbladders of vehicle but not Compound A treated mice”, the “Gallstone formation (incidence, mice with gallstones/mice)” value (mice fed a Paigen diet [1]; vehicle 14/19) is reported as 0/20 and the “incidence of gallstone formation” value (mice fed a Paigen diet [1]; vehicle 73.7%) is reported as 0%. The “Gallstone dissolution (gallstone incidence, mice with gallstones/mice)” value ([2]; vehicle 13/26) was 5/20, the “gallstone incidence in mice with preformed gallstones” value ([2]; vehicle 50%) was 25% and the “bile cholesterol level increase induced by the Paigen diet, vs vehicle” value (mice fed a Paigen diet [3]; [12]) was “attenuated the increases”. For the same molecule, the “bile phospholipid level increase induced by the Paigen diet, vs vehicle” value (mice fed a Paigen diet [3]; [12]) was “attenuated the increases”, the “BS (bile salt) in gallbladder bile” value (mice fed a Paigen diet [3]; [13]) was 110.42 ± 24.79 mM and the “CE (cholesterol) in gallbladder bile” value (mice fed a Paigen diet [3]; [13]) was 7.70 ± 0.28 mM. For the same molecule, the “PL (phospholipids) in gallbladder bile” value (mice fed a Paigen diet [3]; [13]) was 20.19 ± 1.00 mM, the “bile cholesterol level vs vehicle” value [4, 14] was “higher” and the “bile phospholipid level vs vehicle” value [4, 14] was “higher”. The “bile salt level vs vehicle” value [4, 14] was “Lower”, the “BS (bile salt) in gallbladder bile” value [4, 15] was 120.06 ± 14.28 mM and the “CE (cholesterol) in gallbladder bile” value [4, 15] was 7.54 ± 0.86 mM. The “PL (phospholipids) in gallbladder bile” value [4, 15] was 27.54 ± 2.14 mM, the “bile salt/phospholipid ratio vs vehicle” value ([4]; mice with preformed gallstones) was “significantly decreased” and the “liver TIMP-1 gene expression level vs vehicle” value ([5]; P<0.001) was “reduction”. For the same molecule, the “liver VCAM-1 gene expression level vs vehicle” value ([5]; P<0.001) was “decreasing”, the “liver Col1a2 expression level vs vehicle” value ([5]; P<0.01) was “reduction” and the “serum ALT levels vs vehicle” value ([5]; P<0.01) was “decreased”. For the same molecule, the “effect on liver VCAM-1 levels, FXR dependence” value [6] was “mediated by FXR”, the “hepatic protective effect (serum ALT), FXR dependence” value [6] was “mediated by FXR” and the “reduction of liver Col1a2, FXR dependence” value [6] was “mediated by FXR”. For the same molecule, the “reduction of liver TIMP-1, FXR dependence” value [6] was “mediated by FXR”, the “IL-6 induced CRP mRNA levels” value (Hep3B cells [7]) was “reduced” and the “CRP inhibition at the mRNA level in cells transfected with FXR siRNA” value (Hep3B cells [8]) was “suppressed”. For the same molecule, the “inhibitory effect on CRP secretion in cells transfected with FXR siRNA” value (Hep3B cells [8]; ELISA) was “FXR siRNA blocked Compound A's inhibitory effect”, the “reduction of liver SAA-3 levels vs vehicle” value [9] was 35% and the “reduction of liver SAP levels vs vehicle” value [9] was 40%. For the same molecule, the “reduction of liver VCAM-1 levels vs vehicle” value [9] was 40%, the “liver SAA-3 levels” value [10] was “not significantly altered” and the “liver SAP levels” value [10] was “not significantly altered”. The “liver VCAM-1 levels” value [10] was “not significantly altered”, the “decrease of serum ALT levels vs vehicle” value ([11]; P<0.01) was 60% and the “decrease of serum AST levels vs vehicle” value ([11]; P<0.01) was 75%. For the same molecule, the “decrease of liver TGF-β levels (TGF-β1 mRNA) vs vehicle” value ([11]; normalized to GAPDH, P<0.01) was 30%, the “decrease of liver a-SMA levels (mRNA) vs vehicle” value ([11]; normalized to GAPDH, P<0.01) was 40% and the “decrease of liver MMP-9 levels (mRNA) vs vehicle” value ([11]; normalized to GAPDH, P<0.04) was 75%. The “decrease of liver TIMP-1 levels (mRNA) vs vehicle” value ([11]; normalized to GAPDH, P<0.04) was 60%.
